# US20080318891A1, “Antisense oligonucleotides against thymidylate synthase” (priority 1998, published 2008)
# Legend:
# TS protein = test: TS binding assay ([6-3H]5-FdUMP binding) in HeLa cell lysates; format: cell-based, human; details: HeLa cells, different times following transfection
# Protocol: 5-FdUMP binding was measured in cells transfected with ODN 83 (hatched bars) or ODN 32 (open bars) at different times following transfection. (A) Results are plotted as a percent of 5-FdUMP binding in cells transfected with control ODN 32±SE (n=5). The values for ODN 32 (n=5) were normalized to 100% and are shown without error bars. […] Error bars indicate errors calculated according to a Student t-test, and indicate error due to differences in experimental conditions in 5 measurements taken on different days, and differences due to transfection with different ODNs. The asterisks indicate significant differences (p<0.02) determined by using a paired Student t-test.
# TS binding assay: Cellular content of TS was assayed by binding of [6-^3H]5-FdUMP. […] The assay was performed using cells that were treated with antisense ODN 83 or the scrambled control ODN 32. Briefly, cells were harvested by scraping into PBS and resuspending the subsequent pellet in 100 mM KH2PO4 (pH 7.4). […] The total protein concentration was determined using Coomassie staining (BioRad reagent) (MI) in order to express results as pmol 5-FdUMP bound per mg total protein. 5-FdUMP binding was assessed in paired lysates from cells transfected with ODN 83 or ODN 32, in separate incubation reactions carried out on different days; however, pairs were always assessed together under the same reaction conditions. […]
# HT-29 cells = test: HT-29 proliferation, ODN combined with TS-targeting chemotherapeutics; format: cell-based, human; details: 50 nM ODN plus raltitrexed (RTX) or 5-FudR, 4 days, compared to control SEQ ID NO:7 and chemotherapeutic
# Protocol: HT-29 cells were plated in T25 flasks, treated with SEQ ID NO: 1 or SEQ ID NO:7 (50 nM) and various concentrations of raltitrexed (RTX) or 5-fluorouracil deoxyribonucleotide (5-FudR). Cell proliferation was measured by counting cells after 4 days.
# MCF-7 = test: Tumour cell proliferation, Example 7; format: cell-based, human; details: FIG. 19; three days of culture
# Protocol: (§1) To measure the effects of ODNs on tumour cell proliferation, MSTO-211H, NCI-H28, NCI-H2052, MCF-7, and OV-90 cells were plated at a density of 1×10^5 per 25-cm^2 flask. After 24 or 48 hours, ODNs were mixed with Lipofectamine 2000 (LFA, Invitrogen) for 15 minutes in serum-free medium. Final concentrations of LFA ranged from 0.1 to 0.5 μg/ml to maintain a constant ODN:lipid ratio. The cell culture medium was replaced with 2 ml of the ODN:lipid mixture, and cells incubated for 4 hours, after which an additional 2 ml of medium with FBS was added. Cells in 3 flasks were counted using an electronic particle counter (Beckman Coulter, Hialeah, Fla.) at the time of treatment and after three days of culture. Cell proliferation in the presence of TS antisense SEQ ID NO: 1 or control ODN (SEQ ID NO:7) is shown relative to proliferation in the presence of LFA alone.
# MSTO-211H = test: Tumour cell proliferation, Example 7; format: cell-based, human; details: FIG. 19; three days of culture
# Protocol: as §1
# NCI-H2052 = test: Tumour cell proliferation, Example 7; format: cell-based, human; details: FIG. 19; three days of culture
# Protocol: as §1
# NCI-H28 = test: Tumour cell proliferation, Example 7; format: cell-based, human; details: FIG. 19; three days of culture
# Protocol: as §1
# OV-90 cells = test: Tumour cell proliferation, Example 7; format: cell-based, human; details: FIG. 19; three days of culture
# Protocol: as §1
# [1] = test system: HT-29 colon carcinoma cells
# [2] = test system: three mesothelioma cell lines; test: Proliferation assay, ODN combined with chemotherapeutic agents, Example 9; details: TS antisense ODN 5 nM, three mesothelioma cell lines
# Protocol: Tumour cells were first treated with pemetrexed (Alimta®), 5-FUdR, or gemcitabine alone at various concentrations to determine the IC50 in a proliferation assay, using cell counting on day 0 and day 3.
# Mesothelioma and OV-90 cells were pretreated with TS antisense ODN SEQ ID NO:1 plus control ODN SEQ ID NO:7 (5 nM each) or control ODN SEQ ID NO:7 (10 nM) with 0.1 μg/ml LFA for 4 hours as described in Example 7. […] After the 4-hour incubation, 2 ml of medium with various concentrations of Alimta®, 5-FUdR or gemcitabine was added to achieve the final drug concentrations indicated. Cells were counted at the time of drug treatment and 3 days later, as described in Example 7.
substance,measurement,setting,value
"ODN 83: phosphorothioated 20-mer 5′-GCCAGTGGCAACATCCTTAA-3′, 2′-methoxyethoxy on 6 end nucleotides, complementary to TS mRNA 3′ untranslated region (all phosphorothioate, sugars by position and methylation of C not given here; 2'-methoxyethoxy on six end nucleotides)",TS protein levels (inferred by 5-FdUMP binding),TS protein,diminished
same,Inhibition of HT-29 proliferation by combination with chemotherapeutic,HT-29 cells,increased inhibition
same,Cell proliferation relative to LFA alone,MCF-7,Inhibition of proliferation
same,Cell proliferation relative to LFA alone,MSTO-211H,exquisitely sensitive
same,Cell proliferation relative to LFA alone,NCI-H2052,exquisitely sensitive
same,Cell proliferation relative to LFA alone,NCI-H28,exquisitely sensitive
same,Cell proliferation relative to LFA alone,OV-90 cells,Inhibition of proliferation
same,HT-29 cells labelled (in situ hybridization),[1],46%
same,Reduction of the Alimta IC50,[2],fourfold
